Results on one compound are retold here after publication PMC4698308, “A new amino acid substitution (Ala-205-Phe) in acetolactate synthase (ALS) confers broad spectrum resistance to ALS-inhibiting herbicides” (Planta, 2015).

Assay [1] deals with ALS in POAAN-R3 and susceptible annual bluegrass plants. Set-up: method as in Brosnan et al. [2015]. To be noted: increasing concentrations from 0 to 100 μM; ref Brosnan et al. [2015]; cited from earlier work.
Assay [2] has as its system annual bluegrass (Poa annua L.). Briefly: Whole plant non-target site resistance experiment, foramsulfuron vs sulfometuron (control and plant height 28 days after treatment). The format is in vivo. The procedure: A second experiment was conducted to determine if non-target mechanisms could confer resistance to ALS inhibiting herbicides in our annual bluegrass population, POAAN-R3. ALS-resistant (RP1–RP8) and susceptible (S) plants were cultured in plastic conical containers under previously described glasshouse conditions for 28 days before being treated with foramsulfuron (29 g ha^−1) or sulfometuron-methyl (Oust XP; Dupont Professional Products. Wilmington, DE, USA) at 105 g ai ha^−1. Sulfometuron-methyl is an ALS inhibiting herbicide not metabolized by cytochrome P450 monooxygenases; therefore, it can be used to discern if weed populations survive ALS inhibiting herbicide treatment via target- or non-target site based mechanisms (Christopher et al. [1992]). Per label recommendations, sulfometuron-methyl included non-ionic surfactant at 0.25 % v/v. Treatments were mixed in water carrier applied in an enclosed spray chamber, as previously described, on 13 March 2015.
Annual bluegrass control was visually assessed on a 0 (i.e., no control) to 100 % (i.e., complete kill) scale relative to the non-treated 28 days after treatment. After all control data had been collected, plant height data were collected using a ruler placed at the soil surface of each plastic conical container and recording the distance to the tip of the bud leaf. Treatments were arranged as a 9 × 3 factorial with nine plant selections (RP1–RP8, S) and three herbicides (foramsulfuron, sulfometuron-methyl, non-treated) in a completely randomized design with four replications and repeated in separate glasshouses during March 2015.

Assay [3] concerns the target T1, recombinant Arabidopsis thaliana ALS wild-type enzyme (WT—sensitive) (Arabidopsis thaliana, UniProt P17597).
T1 construct: Protein constructs contained an 85 amino acid N-terminal deletion (chloroplast transit peptide); Hexa-histidine tag (N); made in house
Briefly: biochemical. The method in brief: (§1)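 His-tagged enzymes lacking the 85-residue N-terminal transit peptide, expressed and purified. Herbicides in DMSO added; reaction 60 min at 30 °C, stopped with H2SO4, acetolactate converted to acetoin at 56 °C for 15 min.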

The subject of assay [4] is recombinant Arabidopsis thaliana ALS variant A205F. It counts as biochemical. To be noted: IC50 mutant divided by IC50 sensitive ALS; max inhibitor concentration 1.00 × 10^−04 M. The method in brief: as §1
Assay [5] relates to recombinant Arabidopsis thaliana ALS variant W574L. It counts as biochemical. To be noted: IC50 mutant divided by IC50 sensitive ALS; max inhibitor concentration 1.00 × 10^−04 M. The method in brief:
as §1

In assay [6] the test system is recombinant Arabidopsis thaliana ALS variant A205V. It counts as biochemical. To be noted: IC50 mutant divided by IC50 sensitive ALS; max inhibitor concentration 1.00 × 10^−04 M. The method in brief:
as §1

The pIC50 is −log10 of the IC50, conventionally taken in molar units.

pIC50: −log10 of the molar value.

T1 sequence (P17597 86-670): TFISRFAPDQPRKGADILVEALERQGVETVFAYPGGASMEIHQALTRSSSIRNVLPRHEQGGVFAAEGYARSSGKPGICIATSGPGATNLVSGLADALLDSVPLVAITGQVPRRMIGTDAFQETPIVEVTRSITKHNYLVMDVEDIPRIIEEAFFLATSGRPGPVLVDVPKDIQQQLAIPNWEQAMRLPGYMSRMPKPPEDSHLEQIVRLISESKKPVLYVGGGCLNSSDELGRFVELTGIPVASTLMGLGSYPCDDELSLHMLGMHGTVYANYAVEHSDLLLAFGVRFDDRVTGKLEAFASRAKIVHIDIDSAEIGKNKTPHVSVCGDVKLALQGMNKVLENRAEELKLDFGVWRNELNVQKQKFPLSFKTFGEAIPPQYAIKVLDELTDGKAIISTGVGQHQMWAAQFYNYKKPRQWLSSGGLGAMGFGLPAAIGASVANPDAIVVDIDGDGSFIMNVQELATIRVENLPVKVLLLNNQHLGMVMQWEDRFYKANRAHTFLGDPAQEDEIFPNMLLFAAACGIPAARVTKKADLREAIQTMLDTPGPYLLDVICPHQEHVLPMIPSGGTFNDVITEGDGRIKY

Turning to `COc1cc(OC)nc(NC(=O)NS(=O)(=O)c2cc(NC=O)ccc2C(=O)N(C)C)n1` [Foramsulfuron], in assay [1], the “differences in the in vitro activity of ALS in POAAN-R3 and susceptible plants” value is listed as “no differences”. For the same compound, in assay [2] (RP1, 28 days after treatment, minimum of two tillers, foramsulfuron 29, sulfometuron 105 g ha^−1), the “Annual bluegrass control RP1” value was found to be 8%. For the same compound, the “Annual bluegrass height RP1” value in assay [2] (RP1, plant height 28 days after treatment, foramsulfuron 29, sulfometuron 105 g ha^-1, non-treated 118 mm) is listed as 77 mm. The “Annual bluegrass control RP2” value in assay [2] (RP2, 28 days after treatment, minimum of two tillers, foramsulfuron 29, sulfometuron 105 g ha^−1) was 2%. In assay [2] (RP2, plant height 28 days after treatment, foramsulfuron 29, sulfometuron 105 g ha^-1, non-treated 129 mm), the “Annual bluegrass height RP2” value amounted to 74 mm. Besides, the “Annual bluegrass control RP3” value in assay [2] (RP3, 28 days after treatment, minimum of two tillers, foramsulfuron 29, sulfometuron 105 g ha^−1) is 5%. Besides, the “Annual bluegrass height RP3” value in assay [2] (RP3, plant height 28 days after treatment, foramsulfuron 29, sulfometuron 105 g ha^-1, non-treated 173 mm) stood at 100 mm. Moreover, the “Annual bluegrass control RP4” value in assay [2] (RP4, 28 days after treatment, minimum of two tillers, foramsulfuron 29, sulfometuron 105 g ha^−1) is reported as 11%. Moreover, in assay [2] (RP4, plant height 28 days after treatment, foramsulfuron 29, sulfometuron 105 g ha^-1, non-treated 140 mm), the “Annual bluegrass height RP4” value is listed as 85 mm. Moreover, the “Annual bluegrass control RP5” value in assay [2] (RP5, 28 days after treatment, minimum of two tillers, foramsulfuron 29, sulfometuron 105 g ha^−1) was 8%. Besides, in assay [2] (RP5, plant height 28 days after treatment, foramsulfuron 29, sulfometuron 105 g ha^-1, non-treated 114 mm), the “Annual bluegrass height RP5” value was 75 mm. In addition, the “Annual bluegrass control RP6” value in assay [2] (RP6, 28 days after treatment, minimum of two tillers, foramsulfuron 29, sulfometuron 105 g ha^−1) was determined as 46%. In addition, the “Annual bluegrass height RP6” value in assay [2] (RP6, plant height 28 days after treatment, foramsulfuron 29, sulfometuron 105 g ha^-1, non-treated 106 mm) came to 68 mm. Also, in assay [2] (RP7, 28 days after treatment, minimum of two tillers, foramsulfuron 29, sulfometuron 105 g ha^−1), the “Annual bluegrass control RP7” value was 5%. Also, the “Annual bluegrass height RP7” value in assay [2] (RP7, plant height 28 days after treatment, foramsulfuron 29, sulfometuron 105 g ha^-1, non-treated 125 mm) was 75 mm. Also, the “Annual bluegrass control RP8” value in assay [2] (RP8, 28 days after treatment, minimum of two tillers, foramsulfuron 29, sulfometuron 105 g ha^−1) turned out to be 3%. Besides, in assay [2] (RP8, plant height 28 days after treatment, foramsulfuron 29, sulfometuron 105 g ha^-1, non-treated 132 mm), the “Annual bluegrass height RP8” value came out at 94 mm. Also, the “Annual bluegrass control S” value in assay [2] (susceptible (S), 28 days after treatment, minimum of two tillers, foramsulfuron 29, sulfometuron 105 g ha^−1) stood at 93%. Moreover, the “Annual bluegrass height S” value in assay [2] (susceptible (S), plant height 28 days after treatment, foramsulfuron 29, sulfometuron 105 g ha^-1, non-treated 111 mm) was determined as 18 mm. Further, the pIC50 in assay [3] is 8.12. Besides, the “Resistance factor A205F” value in assay [4] was found to be 5160. In assay [5], the “Resistance factor W574L” value worked out at 2013. In assay [6], the “Resistance factor A205V” value amounted to 12.
